What was measured:
[1] = test system: TNFα production in LPS-stimulated human monocytes; assay: Cot Monocyte TNFα Cell Based Assay; settings: Homo sapiens, Monocyte, TNFα in LPS-stimulated human monocytes; read-out: EC50 TNF
In short: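 Cells at 5,000/well were pretreated with compound for 1 h at 37 °C (0.5% DMSO final), then stimulated with 50 pg/ml LPS for 4 h at 37 °C. Supernatant TNFα was measured by two-antibody TR-FRET after overnight room-temperature incubation; values are percent of control between unstimulated and stimulated wells.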

[2] = molecular target: T1, human Cot catalytic domain (30-397 amino acids) (Homo sapiens, UniProt P41279); assay: High Throughput Cot Biochemical Assay (KinEASE TR-FRET); settings: Cot KinEASE TR-FRET (HTRF) biochemical assay, 400 μM ATP; read-out: IC50 HTRF
T1 construct: Purified recombinant human Cot catalytic domain (30-397 amino acids) was purchased from Cama Biosciences; purchased Cama Biosciences (so in the source)
T1 sequence (P41279 30-397): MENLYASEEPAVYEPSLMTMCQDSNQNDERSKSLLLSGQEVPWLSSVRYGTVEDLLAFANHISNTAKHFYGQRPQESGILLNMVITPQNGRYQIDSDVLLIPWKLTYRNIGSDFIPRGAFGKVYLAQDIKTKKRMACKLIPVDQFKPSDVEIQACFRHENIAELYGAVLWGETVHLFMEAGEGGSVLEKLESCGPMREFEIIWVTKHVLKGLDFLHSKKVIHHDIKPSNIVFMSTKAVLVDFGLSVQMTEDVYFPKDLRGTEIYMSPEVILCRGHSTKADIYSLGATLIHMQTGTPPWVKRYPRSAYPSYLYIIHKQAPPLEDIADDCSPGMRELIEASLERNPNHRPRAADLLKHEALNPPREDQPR
In short: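 Reaction of 5 nM recombinant human Cot catalytic domain (aa 30-397) with 1 μM STK3 peptide (XL665-labeled) and 400 μM ATP in 10 mM MOPS pH 7.0, 10 mM MgOAc, 1 mM DTT, 0.5 mg/mL BSA, 0.1% DMSO. Phosphopeptide detected by TR-FRET with europium anti-phospho antibody.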

EC50 [1] [nM]	IC50 [2] [nM]	SMILES
1850	140	[2H][C@](Nc1cc(Cl)c2ncc(C#N)c(NC(C)(C)CO)c2c1)(c1ccc(F)cc1)c1cn(C2CC2)nn1 [Example 173, (S)-8-chloro-6-(((1-cyclopropyl-1H-1,2,3-triazol-4-yl)(4-fluorophenyl)methyl-d)amino)-4-((1-hydroxy-2-methylpropan-2-yl)amino)quinoline-3-carbonitrile]
> 10000	837	[2H][C@](Nc1cc(Cl)c2ncc(C#N)c(NC(C)CCO)c2c1)(c1ccc(F)cc1)c1cn(C2CC2)nn1 (some centres unmarked) [Example 174]
5920	280	[2H][C@](Nc1cc(Cl)c2ncc(C#N)c(NC(CC)Cc3ccccc3)c2c1)(c1ccc(F)cc1)c1cn(C2CC2)nn1 (stereo partly drawn) [Example 175, 8-chloro-6-(((S)-(1-cyclopropyl-1H-1,2,3-triazol-4-yl)(4-fluorophenyl)methyl-d)amino)-4-((1-phenylbutan-2-yl)amino)quinoline-3-carbonitrile]
809	83	[2H][C@](Nc1cc(Cl)c2ncc(C#N)c(NCC3(C(F)(F)F)CC3)c2c1)(c1ccc(F)cc1)c1cn(C2CC2)nn1 [Example 176]
2460	370	[2H][C@](Nc1cc(Cl)c2ncc(C#N)c(NN3CCCCCC3)c2c1)(c1ccc(F)cc1)c1cn(C2CC2)nn1 [Example 177, (S)-4-(azepan-1-ylamino)-8-chloro-6-(((1-cyclopropyl-1H-1,2,3-triazol-4-yl)(4-fluorophenyl)methyl-d)amino)quinoline-3-carbonitrile]
674	110	[2H][C@](Nc1cc(Cl)c2ncc(C#N)c(NN3CCCCC3)c2c1)(c1ccc(F)cc1)c1cn(C2CC2)nn1 [Example 178, (S)-8-chloro-6-(((1-cyclopropyl-1H-1,2,3-triazol-4-yl)(4-fluorophenyl)methyl-d)amino)-4-(piperidin-1-ylamino) quinoline-3-carbonitrile]
2310	193	[2H][C@](Nc1cc(Cl)c2ncc(C#N)c(NN3CCCC3)c2c1)(c1ccc(F)cc1)c1cn(C2CC2)nn1 [Example 179, (S)-8-chloro-6-(((1-cyclopropyl-1H-1,2,3-triazol-4-yl)(4-fluorophenyl)methyl-d)amino)-4-(pyrrolidin-1-ylamino)quinoline-3-carbonitrile]
3590	194	[2H][C@](Nc1cc(Cl)c2ncc(C#N)c(NC(CC)c3cnc(F)c(F)c3)c2c1)(c1ccc(F)cc1)c1cn(C2CC2)nn1 (stereo partly drawn) [Example 180, 8-chloro-6-(((S)-(1-cyclopropyl-1H-1,2,3-triazol-4-yl)(4-fluorophenyl)methyl-d)amino)-4-((1-(5,6-difluoropyridin-3-yl)propyl)amino) quinoline-3-carbonitrile]
348	28	[2H][C@](Nc1cc(Cl)c2ncc(C#N)c(N[C@H](COC)c3ccccc3)c2c1)(c1ccc(F)cc1)c1cn(C2CC2)nn1 [Example 181, 8-chloro-6-(((1-cyclopropyl-1H-1,2,3-triazol-4-yl)(4-fluorophenyl)methyl-d)amino)-4-(((S)-2-methoxy-1-phenylethyl)amino) quinoline-3-carbonitrile]
136	4	[2H][C@@](Nc1cc(C#N)c2ncc(C#N)c(Nc3ccc(F)c(Cl)c3)c2c1)(c1cn(C2CC2)nn1)c1ccccc1Cl [Example 182, (S)-4-((3-chloro-4-fluorophenyl)amino)-6-(((2-chlorophenyl)(1-cyclopropyl-1H-1,2,3-triazol-4-yl)methyl-d)amino) quinoline-3,8-dicarbonitrile]
1410	89	[2H][C@@](Nc1cc(Cl)c2ncc(C#N)c(Nc3ccc(Cl)c(Cl)c3F)c2c1)(c1cn(C2CC2)nn1)c1ccccc1Cl [Example 183, (S)-8-chloro-6-(((2-chlorophenyl)(1-cyclopropyl-1H-1,2,3-triazol-4-yl)methyl-d)amino)-4-((3,4-dichloro-2-fluorophenyl)amino)quinoline-3-carbonitrile]
4380	154	[2H]C(Nc1cc(Cl)c2ncc(C#N)c(NCC(C)(C)C)c2c1)(c1ccc(F)cc1)c1nnnn1C (centres unmarked) [Example 184, 8-chloro-6-(((4-fluorophenyl)(1-methyl-1H-tetrazol-5-yl)methyl-d)amino)-4-(neopentylamino) quinoline-3-carbonitrile]
199	11	[2H][C@](Nc1cc(Cl)c2ncc(C#N)c(N[C@@H](c3ccccc3)C3CC3)c2c1)(c1ccc(F)cc1)c1cn(C2CC2)nn1 [Example 185, 8-chloro-4-(((R)-cyclopropyl (phenyl)methyl)amino)-6-(((S)-(1-cyclopropyl-1H-1,2,3-triazol-4-yl)(4-fluorophenyl)methyl-d)amino)quinoline-3-carbonitrile]
> 10000	> 10000	[2H][C@](Nc1cc(Cl)c2ncc(C#N)c(N[C@@H](CO)C(C)(C)C)c2c1)(c1ccc(F)cc1)c1cn(C2CC2)nn1 [Example 186, 8-chloro-6-(((S)-(1-cyclopropyl-1H-1,2,3-triazol-4-yl)(4-fluorophenyl)methyl-d)amino)-4-(((R)-1-hydroxy-3,3-dimethylbutan-2-yl)amino)quinoline-3-carbonitrile]
793	85	[2H][C@](Nc1cc(Cl)c2ncc(C#N)c(N[C@H](CO)C(C)(C)C)c2c1)(c1ccc(F)cc1)c1cn(C2CC2)nn1 [Example 187, 8-chloro-6-(((S)-(1-cyclopropyl-1H-1,2,3-triazol-4-yl)(4-fluorophenyl)methyl-d)amino)-4-(((S)-1-hydroxy-3,3-dimethylbutan-2-yl)amino)quinoline-3-carbonitrile]
203	16	[2H][C@](Nc1cc(Cl)c2ncc(C#N)c(N[C@H](C)C(C)(C)C)c2c1)(c1ccc(F)cc1)c1cn(C2CC2)nn1 [Example 188, 8-chloro-6-(((S)-(1-cyclopropyl-1H-1,2,3-triazol-4-yl)(4-fluorophenyl)methyl-d)amino)-4-(((R)-3,3-dimethylbutan-2-yl)amino)quinoline-3-carbonitrile]
157	10	[2H][C@](Nc1cc(Cl)c2ncc(C#N)c(NC3CCCC3(C)C)c2c1)(c1ccc(F)cc1)c1cn(C2CC2)nn1 (some centres unmarked) [Example 189]
55	3	[2H][C@](Nc1cc(Cl)c2ncc(C#N)c(NC3CCOCC3(C)C)c2c1)(c1ccc(F)cc1)c1cn(C2CC2)nn1 (stereo partly drawn) [Example 190, 8-chloro-6-(((S)-(1-cyclopropyl-1H-1,2,3-triazol-4-yl)(4-fluorophenyl)methyl-d)amino)-4-((3,3-dimethyltetrahydro-2H-pyran-4-yl)amino)quinoline-3-carbonitrile]
487	56	[2H][C@](Nc1cc(Cl)c2ncc(C#N)c(NCC(Cl)(Cl)Cl)c2c1)(c1ccc(F)cc1)c1cn(C2CC2)nn1 [Example 191, (S)-8-chloro-6-(((1-cyclopropyl-1H-1,2,3-triazol-4-yl)(4-fluorophenyl)methyl-d)amino)-4-((2,2,2-trichloroethyl)amino) quinoline-3-carbonitrile]
107	3	[2H][C@](Nc1cc(Cl)c2ncc(C#N)c(NCC(C)(C)CCl)c2c1)(c1ccc(F)cc1)c1cn(C2CC2)nn1 [Example 192, (S)-8-chloro-4-((3-chloro-2,2-dimethylpropyl)amino)-6-(((1-cyclopropyl-1H-1,2,3-triazol-4-yl)(4-fluorophenyl)methyl-d)amino)quinoline-3-carbonitrile]
833	57	[2H]C(Nc1cc(Cl)c2ncc(C#N)c(NC(CS(C)(=O)=O)c3ccccc3)c2c1)(c1ccc(F)cc1)c1cn(C2CC2)nn1 (centres unmarked) [Example 193, 8-chloro-6-(((1-cyclopropyl-1H-1,2,3-triazol-4-yl)(4-fluorophenyl)methyl-d)amino)-4-((2-(methylsulfonyl)-1-phenylethyl)amino) quinoline-3-carbonitrile]
2420	286	[2H][C@](Nc1cc(C)c2ncc(C#N)c(NCC(C)(C)C)c2c1)(c1ccc(F)cc1)c1cn(C2CC2)nn1 [Example 194, (S)-6-(((1-cyclopropyl-1H-1,2,3-triazol-4-yl)(4-fluorophenyl)methyl-d)amino)-8-methyl-4-(neopentylamino) quinoline-3-carbonitrile]
1190	160	[2H][C@](Nc1cc(C(F)(F)F)c2ncc(C#N)c(N[C@H](CC)c3ccccc3)c2c1)(c1ccc(F)cc1)c1cn(C2CC2)nn1 [Example 195, 6-(((S)-(1-cyclopropyl-1H-1,2,3-triazol-4-yl)(4-fluorophenyl)methyl-d)amino)-4-(((R)-1-phenylpropyl)amino)-8-(trifluoromethyl) quinoline-3-carbonitrile]
1510	267	[2H][C@](Nc1cc(C(F)(F)F)c2ncc(C#N)c(NCC(C)(C)C)c2c1)(c1ccc(F)cc1)c1cn(C2CC2)nn1 [Example 196, (S)-6-(((1-cyclopropyl-1H-1,2,3-triazol-4-yl)(4-fluorophenyl)methyl-d)amino)-4-(neopentylamino)-8-(trifluoromethyl) quinoline-3-carbonitrile]
38	2	[2H][C@@](Nc1cc(Cl)c2ncc(C#N)c(NCC(C)(C)C)c2c1)(c1cn(C2CC2)nn1)c1cccc(C#N)c1C [Example 197, (S)-8-chloro-6-(((3-cyano-2-methylphenyl) (1-cyclopropyl-1H-1,2,3-triazol-4-yl)methyl-d)amino)-4-(neopentylamino) quinoline-3-carbonitrile]

Reference: US10316017B2, “COT modulators and methods of use thereof” (Gilead Sciences, Inc., priority 2015, dated 2019)
